We go through four molecules from patent US20260085070A1, “HETEROCYCLIC CBL-B INHIBITORS FOR THE TREATMENT OF CANCER” (HOTSPOT THERAPEUTICS, INC., priority 2022, published 2026).

The test has as its target T1, Cbl-b (Homo sapiens, UniProt Q13191).
T1 construct: Biotin (biotinylated protein)
Kind of test: Cbl-b LCK Ub TR-FRET assay. It counts as biochemical. To be noted: Biotin-Cbl-b, His-LCK; no LCK as low control, DMSO as high control; IC50s binned A through C; read-out: CBL-B_TR-FRET_AVG_IC50. As to the method: Compounds are 3-told serially diluted in DMSO in a 384-well polypropylene plate (e.g., #P-05525-BC; Labcyte) to generate a source plate with 10 concentrations of each compound, top concentration=2 mM. 80 nL of DMSO or compounds are transferred to each well of a black 384-well ProxiPlate (e.g., #6008260; PerkinElmer) using a Labcyte Echo. 1× assay buffer (50 mM HEPES pH7.0, 100 mM NaCl, 0.01% BSA, 0.01% Triton-X100, 1 mM DTT), 2× enzyme solution (16 nM Biotin-Cbl-b or 12 nM Biotin-c-Cbl in 1× assay buffer), 2× kinase mixture (120 nM His-LCK, 1 mM ATP, 10 mM MgCl2 in assay buffer) and 2.33× detection mixture (4.66× solution 1:163 nM Anti-HA-D2 antibody (e.g., #610HADAB; PerkinElmer), 27.96 nM Streptavidin-EU (e.g., #AD0062; PerkinElmer), 1.398 mM EDTA in 1× assay buffer+4.66× solution 2: […] UBE2D2/Methylated-HA-Ubiquitin thioester adduct (e.g., BostonBiochem) in 1× assay buffer) are prepared. […] of 2× enzyme solution are added to each well containing compound, briefly centrifuged to mix, and incubated for 60 min at room temperature. […] of 2× kinase mixture is added, briefly centrifuged to mix, and incubated for 90 min. at room temperature. […] of detection mixture is added to all wells and briefly centrifuged before incubating for 20 min at room temperature. Plates are read for TR-FRET using an Envision at excitation 340 nm, emission at 615 and 665 nm, 4 flashes per well. IC50 is generated using no LCK as the low control and DMSO as the high control. Compound IC50s were binned into A through C as follows: A indicates <100 nM, B indicates 100 nM-500 nM, and C indicates >500 nM.
(In general: TR-FRET usually uses a lanthanide donor and a delayed reading to cut background.)

T1 sequence (Q13191 10-426): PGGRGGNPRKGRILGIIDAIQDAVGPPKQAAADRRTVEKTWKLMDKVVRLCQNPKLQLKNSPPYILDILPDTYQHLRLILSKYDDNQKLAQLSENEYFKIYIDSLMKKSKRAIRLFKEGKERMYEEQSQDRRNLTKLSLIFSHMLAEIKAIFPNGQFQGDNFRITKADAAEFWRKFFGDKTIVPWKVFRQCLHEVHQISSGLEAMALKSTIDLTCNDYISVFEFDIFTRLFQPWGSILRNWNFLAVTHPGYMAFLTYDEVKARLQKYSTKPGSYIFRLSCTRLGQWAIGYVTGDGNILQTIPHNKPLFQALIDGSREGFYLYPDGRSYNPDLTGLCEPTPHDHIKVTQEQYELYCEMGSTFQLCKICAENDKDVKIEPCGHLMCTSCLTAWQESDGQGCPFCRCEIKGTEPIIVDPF

Regarding `C[C@H]1CCCN(Cc2cc(C(F)(F)F)c3cn(-c4cc(-c5ccc(F)cc5-c5nncn5C)cc(Br)n4)c(=O)n3c2)C1` [Compound 4], the IC50 was over 500 nM.

For `Cn1cnnc1-c1cc(F)ccc1-c1cccc(-n2cc3c(C(F)(F)F)cc(CNCC4(O)CCC4)cn3c2=O)c1` [Compound 1], the IC50 was under 100 nM.

As to `C[C@H]1CCCN(Cc2cc(C(F)(F)F)c3cn(-c4cc(-c5ccc(F)cc5-c5nncn5C)cc(Cl)n4)c(=O)n3c2)C1` [Compound 3], the IC50 is over 500 nM.

In the case of `C[C@H]1CCCN(Cc2cc(C(F)(F)F)c3cn(-c4cc(-c5ccc(F)cc5-c5nncn5C)cc(C5CC5)n4)c(=O)n3c2)C1` [Compound 2], the IC50 was over 500 nM.
